Series [1] concerns the target T1, 2-heptyl-4(1H)-quinolone synthase PqsD (Pseudomonas aeruginosa, UniProt A0A0C7ACN7).
T1 sequence (A0A0C7ACN7 whole entry): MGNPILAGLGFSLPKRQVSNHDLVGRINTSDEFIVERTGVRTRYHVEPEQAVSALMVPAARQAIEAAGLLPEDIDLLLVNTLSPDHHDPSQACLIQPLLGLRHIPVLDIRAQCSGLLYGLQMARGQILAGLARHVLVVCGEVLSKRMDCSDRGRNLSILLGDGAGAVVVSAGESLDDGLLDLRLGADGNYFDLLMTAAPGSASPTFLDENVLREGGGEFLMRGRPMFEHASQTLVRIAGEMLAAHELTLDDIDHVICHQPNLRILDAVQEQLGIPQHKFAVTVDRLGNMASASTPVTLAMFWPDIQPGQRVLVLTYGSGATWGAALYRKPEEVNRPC
The series is described as follows: Inhibition of Pseudomonas aeruginosa PqsD.

For series [2], the target named is T2, Transcriptional regulator MvfR (Pseudomonas aeruginosa PA14, UniProt A0A072ZLE6).
T2 sequence (A0A072ZLE6 whole entry): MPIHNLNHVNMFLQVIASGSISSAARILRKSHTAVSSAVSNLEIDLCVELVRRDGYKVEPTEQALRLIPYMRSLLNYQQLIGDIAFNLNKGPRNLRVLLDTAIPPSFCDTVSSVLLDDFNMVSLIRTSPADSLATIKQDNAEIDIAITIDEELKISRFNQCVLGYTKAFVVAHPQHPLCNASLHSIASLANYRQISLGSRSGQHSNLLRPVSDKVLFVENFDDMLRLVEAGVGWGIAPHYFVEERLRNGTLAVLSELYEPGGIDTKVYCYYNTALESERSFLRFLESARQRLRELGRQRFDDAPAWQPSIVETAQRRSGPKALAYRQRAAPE
The series is described as follows: Inhibition of Pseudomonas aeruginosa PqsR.

The nature of series [3]: Agonist activity at Pseudomonas aeruginosa pqsA delta frame deletion mutant.
Series [4] addresses T2, Transcriptional regulator MvfR. The series is described as follows: Antagonist activity at His6 -tagged Pseudomonas aeruginosa PqsR CBD domain expressed in Escherichia coli Rosetta 2 (DE3).
Series [5] is described as follows: Antagonist activity at His6 -tagged Pseudomonas aeruginosa PqsR C87 mutant expressed in Escherichia coli BL21 (DE3) cells by surface plasma resonance method.
The target of series [6] is T3, Transcriptional regulator MvfR (Pseudomonas aeruginosa PA14) (UniProt A0A072ZLE6).
T3 sequence (whole entry): T2 sequence (A0A072ZLE6 whole entry)
Put plainly: Inhibition of Pseudomonas aeruginosa PqsR relative to control. The conditions noted are these: concentration not given here.

The nature of series [7]: Binding affinity to Pseudomonas aeruginosa His6/Sumo-tagged PqsR C87 mutant expressed in Escherichia coli BL21 (DE3) […] cells by surface plasma resonance method.
Series [8] in a line: Half life in rat hepatic microsomes at 1 uM in presence of NADPH by UPLC-MS/MS analysis. It is filed as ADME, Microsome. Particulars: liver microsomes.
The nature of series [9]: Half life in human hepatic microsomes at 1 uM in presence of NADPH by UPLC-MS/MS analysis. It is filed as ADME, Microsome. The conditions noted are these: liver microsomes.

Where only a bound is given, the exact number is not on record here.

Take `CS(=O)(=O)c1nccc(-n2cnnn2)n1`: the IC50 in series [1] was determined as 21 µM; in series [2] it was 15 µM.
Regarding `CCCCCCCCCc1nc2cc(F)ccc2c(=O)n1OC`, the EC50 in series [3] is 2.2 µM.
In [4], `CCCCCCCCCc1nc2cc(F)ccc2c(=O)n1N` came in with a half-inhibitory concentration (IC50) of 3.9 µM.
For `CCCCCCCc1[nH]c2ccccc2c(=O)c1O`, in [3], the midpoint of the response, the EC50, lay at 1.9 µM.
In the case of `CCCCCCCCCc1nc2cc(Cl)ccc2c(=O)n1N`, in series [4], the IC50 was 5 µM.
In [5], `CC(C)(C)c1ccc(C(=O)NO)cc1` yielded a 50% inhibitory concentration (IC50) of 23.6 µM.
Molecule `CCCCCCCCCc1nc2cc(F)c(F)cc2c(=O)n1N` showed an IC50 in series [4] of 1.2 µM.
`CCCCCCS(=O)(=O)c1nccc(-n2ccnn2)n1`: the IC50 in [1] was 1.7 µM; in series [2], 50 µM. Also, in series [6], the inhibition is 47%.
On to `CCCCCCCc1cc(=O)c2cc(C(F)(F)F)ccc2[nH]1`, for which the Kd in series [7] was found to be 0.057 µM.
For the molecule `O=CN1N=C(c2ccccc2)CC1c1cccc(Nc2ccnc3cc(Cl)ccc23)c1` (centres undefined), the half-life at 1 µM in series [8] and in series [9] was less than 30 min throughout.

These data come from ChEMBL document CHEMBL4346692, “Anti-PqsR compounds as next-generation antibacterial agents against Pseudomonas aeruginosa: A review” (Eur J Med Chem, 2019).
